According to patent US9198923B2, “Phosphate management with small molecules” (OPKO IRELAND GLOBAL HOLDINGS, LTD., priority 2009, dated 2015):

Assays:
[1] = test system: phosphate uptake in Caco-2 human intestinal epithelial cells; assay: Dosage effect on phosphate uptake inhibition in Caco-2 cells; format: cell-based; settings: concentrations from 1 to 100 μM, FIG. 2
Experimental: Caco-2 cells were cultured in DMEM medium containing 20% Fetal Bovine Serum. Medium from the sub-confluent monolayer of Caco-2 cells was removed. The resulting cells were washed with either a sodium free buffer (137 mM choline chloride, 5.4 mM KCl, 2.8 mM CaCl2, 1.2 mM MgSO4, and 14 mM Tris-HCl at pH 7.4), or with a buffer that contained sodium (137 mM sodium chloride, 5.4 mM KCl, 2.8 mM CaCl2, 1.2 mM MgSO4, and 14 mM Tris-HCl at pH 7.4). After the wash, sodium or sodium free buffer comprising 1 μM of radiolabeled phosphate (K2H^32PO4,1 μCi/mL) and 100 μM of a small molecule having a phosphate group that was selected from the group containing Compounds 001-029 was added to the cells and they were incubated for 20 min at 37° C. Phosphate uptake was terminated by removing the uptake media and washing the cells with an ice-cold solution of 14 mM Tris-HCl, pH 7.4 that contained 137 mM of either choline chloride or sodium chloride. The monolayers of the cells were solubilized by the addition of a 1% solution of Triton X-100 to extract the radiolabeled phosphate. Aliquots of the radiolabeled phosphate were added to scintillation fluid and the radioactivity was determined by liquid scintillation counting. The difference between the assays using the two solutions with or without sodium represents the sodium dependent transport of phosphate.
The procedure of example 1 was repeated using C-002, C-004, C-012, and C-028 at concentrations from 1 to 100 μM. The results were recorded as the percent of phosphate uptake inhibition versus concentration of the small molecule having a phosphate group.

[2] = test system: Caco-2 human epithelial cells; assay: Caco-2 cell viability by ALAMAR BLUE stain reduction; format: cell-based; settings: 100 μM compound, Caco-2 cells; FIG. 3; taken as nontoxic
Experimental: Staining was performed with ALAMAR BLUE stain in the presence of 100 μM C-002, C-004, C-012, and C-028 cells to exclude compound toxicity in the phosphorus transport assay. Caco-2 cells were plated into a 96-well plate in concentrations which gave about 16,000 cells/well on the day of the test (e.g., 8000 cells/well for a 1 day growth, 4000 cells/well for a 2 day growth, 2000 cell/well for a 3 day growth). On the day of the test, old media was replaced by 80 μL of fresh media per well with either a 100 μM final concentration of the small molecule having a phosphate group in DMSO, or with 1% of DMSO in the control wells. Testing was performed in duplicate. ALAMAR BLUE stain (BioSource International, Inc., Cat#DAL1100) was added at a final concentration of 10% into each well according to manufacturer instructions. The cells were then incubated at 37° C. for another 18 or 24 hours, and the reduction of ALAMAR BLUE stain by vital cells was measured spectrophotometrically at 570 nm and 600 nm. The results were calculated as the percent of reduction using the formula in the manufacturer's manual (TREK Diagnostic Systems, PI-DIAL 1025/1100 Rev 1.0).

[3] = test system: Caco-2 human epithelial cells; assay: Caco-2 cell viability by trypan blue exclusion; format: cell-based; settings: 100 μM compound, one hour of incubation, sodium or sodium free buffer; FIG. 4
Experimental: Trypan blue exclusion was used to determine the effect of C-002, 004, 012, and 028 on cell viability. The cells were plated in the same way as the ALAMAR BLUE stain test (see above). On the day of the test, media was removed, cells were washed with PBS and incubated with 100 μM (final concentration) of C-002, C-004, C-012 and C-028 in either a sodium free buffer (137 mM choline chloride, 5.4 mM KCl, 2.8 mM CaCl2, 1.2 mM MgSO4, and 14 mM Tris-HCl at pH 7.4), or with a buffer that contained sodium (137 mM sodium chloride, 5.4 mM KCl, 2.8 mM CaCl2, 1.2 mM MgSO4, and 14 mM Tris-HCl at pH 7.4). Testing was performed in duplicate. After 1 hour of incubation the cells were detached with trypsin/EDTA, transferred to an Eppendorf tube, and their viability was counted using 0.4% trypan blue stain (Invitrogen, Cat.#15250-061) in a 1:4 dilution with confocal microscopy.

Male Sprague Dawley rats = assay: Maximum tolerated dose (MTD) in male Sprague Dawley rats; format: in vivo, rat; settings: oral, daily, 0.5, 5 and 10 mg per kg for twelve days; for effect on weight gain: FIG. 5
Experimental: Male Sprague Dawley rats were given C-002, C-004, C-012, C-021, C-022, C-023, and C-028 orally and daily at doses of 0.5, 5 and 10 mg per kg for twelve days. The mortality and animal weight data were recorded.

Row | SMILES | percent inhibition of phosphate uptake versus concentration [1] | percent difference in ALAMAR BLUE stain reduction after 18 and 24 hours [2] | viability of Caco-2 cells by trypan blue exclusion [3] | mortality (Male Sprague Dawley rats) | effect on weight gain (Male Sprague Dawley rats)
1 | O=P(O)(O)c1c(Cl)c(Cl)nc(Cl)c1Cl [C-002] | increased with the concentration | virtually unchanged | no significant effect | No death | no significant effect
2 | C=C(c1ccccc1)P(=O)(O)O [C-004] | increased with the concentration | virtually unchanged | no significant effect | No death | no significant effect
3 | Cc1csc(Nc2ccc([N+](=O)[O-])cc2)[n+]1CCC(O)(P(=O)(O)O)P(=O)(O)O [C-012] | increased with the concentration | virtually unchanged | no significant effect | No death | no significant effect
4 | O=P(O)(O)c1ccccc1OCCCl [C-021] |  |  |  | No death | no significant effect
5 | O=P(O)(O)c1ccccc1OCCCOc1ccccc1P(=O)(O)O [C-022] |  |  |  | No death | no significant effect
6 | O=P(O)(O)/C=C/c1ccccc1 [C-023] |  |  |  | No death | no significant effect
7 | O=P(O)(OC(c1ccccc1)C(F)(F)C(F)(F)C(F)(F)F)c1ccccc1 (centres unmarked) [C-028] | increased with the concentration | virtually unchanged | no significant effect | No death | no significant effect
